{"source": "the OligoGym collection", "note": "HELM strings list units from the 5' end as sugar, base in round brackets, then linkage (d deoxyribose, r ribose, m 2'-O-methyl, p phosphodiester). Strings are as the collection lists them; they lack the last nucleoside at the 3' end of the tested compound. [moe] = 2'-O-(2-methoxyethyl) (MOE); [sp] = phosphorothioate linkage; [m5C] = 5-methylcytosine"}
{"biological_target": "ATXN2", "assay": "mouse, dose not given", "conditions": "ASO", "units": {"3 h FOB score": "score 0-7"}}
{"substance": "RNA1{[moe](G)[sp].[moe](T)p.[moe](T)p.[moe](G)p.[moe](T)p.d(T)[sp].d(G)[sp].d(T)[sp].d(T)[sp].d(T)[sp].d(A)[sp].d([m5C])[sp].d(A)[sp].d(T)[sp].d(T)[sp].[moe](A)p.[moe](T)p.[moe](T)[sp].[moe](A)}$$$$ (last 3' nucleoside missing)", "3 h FOB score": 0}
{"substance": "RNA1{[moe](G)[sp].[moe](T)p.[moe](T)p.[moe](G)p.[moe]([m5C])p.d(A)[sp].d([m5C])[sp].d(A)[sp].d(T)[sp].d(A)[sp].d(G)[sp].d(G)[sp].d(T)[sp].d(T)[sp].d(A)[sp].[moe](G)p.[moe](A)p.[moe](A)[sp].[moe](T)}$$$$ (last 3' nucleoside missing)", "3 h FOB score": 6}
{"substance": "RNA1{[moe](G)[sp].[moe](T)p.[moe](T)p.[moe](T)p.[moe](A)p.d(A)[sp].d(T)[sp].d(T)[sp].d(T)[sp].d(G)[sp].d(T)[sp].d(A)[sp].d(A)[sp].d([m5C])[sp].d(T)[sp].[moe](A)p.[moe](G)p.[moe](G)[sp].[moe](T)}$$$$ (last 3' nucleoside missing)", "3 h FOB score": 3.5}
{"substance": "RNA1{[moe](G)[sp].[moe](T)p.[moe](T)p.[moe](T)p.[moe](G)p.d(G)[sp].d(A)[sp].d(A)[sp].d(T)[sp].d([m5C])[sp].d(T)[sp].d(T)[sp].d(A)[sp].d(T)[sp].d(T)[sp].[moe](A)p.[moe](A)p.[moe](G)[sp].[moe]([m5C])}$$$$ (last 3' nucleoside missing)", "3 h FOB score": 1}
{"substance": "RNA1{[moe](G)[sp].[moe](T)p.[moe](T)p.[moe](T)p.[moe](T)p.d(G)[sp].d(T)[sp].d(T)[sp].d(T)[sp].d(A)[sp].d(A)[sp].d(T)[sp].d([m5C])[sp].d(A)[sp].d([m5C])[sp].[moe](A)p.[moe](G)p.[moe](T)[sp].[moe](T)}$$$$ (last 3' nucleoside missing)", "3 h FOB score": 2}
{"substance": "RNA1{[moe](G)[sp].[moe](T)p.[moe](T)p.[moe]([m5C])p.[moe](A)p.d(A)[sp].d(A)[sp].d(T)[sp].d(T)[sp].d([m5C])[sp].d([m5C])[sp].d(G)[sp].d(G)[sp].d([m5C])[sp].d(T)[sp].[moe]([m5C])p.[moe]([m5C])p.[moe](A)[sp].[moe](T)}$$$$ (last 3' nucleoside missing)", "3 h FOB score": 5.25}
{"substance": "RNA1{[moe](G)[sp].[moe](T)p.[moe](T)p.[moe]([m5C])p.[moe](A)p.d(T)[sp].d(G)[sp].d(A)[sp].d([m5C])[sp].d(T)[sp].d(T)[sp].d(T)[sp].d([m5C])[sp].d(A)[sp].d(A)[sp].[moe](G)p.[moe](G)p.[moe](G)[sp].[moe](T)}$$$$ (last 3' nucleoside missing)", "3 h FOB score": 2}
{"substance": "RNA1{[moe](G)[sp].[moe](T)p.[moe](T)p.[moe]([m5C])p.[moe](A)p.d(T)[sp].d(T)[sp].d([m5C])[sp].d([m5C])[sp].d(A)[sp].d(G)[sp].d(A)[sp].d(T)[sp].d(T)[sp].d(T)[sp].[moe]([m5C])p.[moe](A)p.[moe]([m5C])[sp].[moe](T)}$$$$ (last 3' nucleoside missing)", "3 h FOB score": 4}
{"substance": "RNA1{[moe](G)[sp].[moe](T)p.[moe](T)p.[moe]([m5C])p.[moe](A)p.d(T)[sp].d([m5C])[sp].d(T)[sp].d(T)[sp].d(T)[sp].d(T)[sp].d([m5C])[sp].d([m5C])[sp].d(T)[sp].d(T)[sp].[moe]([m5C])p.[moe](A)p.[moe](G)[sp].[moe](A)}$$$$ (last 3' nucleoside missing)", "3 h FOB score": 0}
{"substance": "RNA1{[moe](G)[sp].[moe](T)p.[moe](T)p.[moe]([m5C])p.[moe]([m5C])p.d(T)[sp].d(T)[sp].d(A)[sp].d([m5C])[sp].d(A)[sp].d(A)[sp].d(T)[sp].d(T)[sp].d(A)[sp].d(T)[sp].[moe]([m5C])p.[moe](T)p.[moe](A)[sp].[moe](T)}$$$$ (last 3' nucleoside missing)", "3 h FOB score": 3}
{"substance": "RNA1{[moe](G)[sp].[moe](T)p.[moe]([m5C])p.[moe](T)p.[moe](T)p.d(G)[sp].d(T)[sp].d(T)[sp].d([m5C])[sp].d(A)[sp].d(G)[sp].d(T)[sp].d(G)[sp].d(T)[sp].d([m5C])[sp].[moe]([m5C])p.[moe](T)p.[moe](T)[sp].[moe]([m5C])}$$$$ (last 3' nucleoside missing)", "3 h FOB score": 6}
{"substance": "RNA1{[moe](G)[sp].[moe]([m5C])[sp].[moe](T)[sp].[moe](A)[sp].[moe](A)[sp].d([m5C])[sp].d(T)[sp].d(G)[sp].d(G)[sp].d(T)[sp].d(T)[sp].d(T)[sp].d(G)[sp].d([m5C])[sp].d([m5C])[sp].[moe]([m5C])[sp].[moe](T)[sp].[moe](T)[sp].[moe](G)}$$$$ (last 3' nucleoside missing)", "3 h FOB score": 7}
{"substance": "RNA1{[moe](G)[sp].[moe]([m5C])p.[moe](A)p.[moe](A)p.[moe](A)p.d(G)[sp].d(A)[sp].d([m5C])[sp].d(T)[sp].d(T)[sp].d(T)[sp].d(G)[sp].d(A)[sp].d(A)[sp].d(A)[sp].[moe](T)p.[moe]([m5C])p.[moe](T)[sp].[moe]([m5C])}$$$$ (last 3' nucleoside missing)", "3 h FOB score": 0}
{"substance": "RNA1{[moe](G)[sp].[moe]([m5C])p.[moe](A)p.[moe](A)p.[moe]([m5C])p.d(T)[sp].d(T)[sp].d(A)[sp].d(A)[sp].d(T)[sp].d(A)[sp].d(A)[sp].d([m5C])[sp].d([m5C])[sp].d(T)[sp].[moe](T)p.[moe](A)p.[moe](G)[sp].[moe](T)}$$$$ (last 3' nucleoside missing)", "3 h FOB score": 0}
{"substance": "RNA1{[moe](G)[sp].[moe]([m5C])p.[moe](A)p.[moe](T)p.[moe](G)p.d(A)[sp].d(T)[sp].d([m5C])[sp].d(T)[sp].d(T)[sp].d(G)[sp].d(T)[sp].d(G)[sp].d(T)[sp].d(A)[sp].[moe](T)p.[moe](A)p.[moe](T)[sp].[moe](A)}$$$$ (last 3' nucleoside missing)", "3 h FOB score": 1}
{"substance": "RNA1{[moe](G)[sp].[moe]([m5C])p.[moe](A)p.[moe](T)p.[moe]([m5C])p.d(A)[sp].d(T)[sp].d(T)[sp].d(A)[sp].d([m5C])[sp].d(G)[sp].d(A)[sp].d([m5C])[sp].d([m5C])[sp].d(A)[sp].[moe](T)p.[moe](T)p.[moe]([m5C])[sp].[moe](T)}$$$$ (last 3' nucleoside missing)", "3 h FOB score": 4}
{"substance": "RNA1{[moe](G)[sp].[moe]([m5C])p.[moe](A)p.[moe]([m5C])p.[moe](A)p.d(T)[sp].d(A)[sp].d(G)[sp].d(G)[sp].d(T)[sp].d(T)[sp].d(A)[sp].d(G)[sp].d(A)[sp].d(A)[sp].[moe](T)p.[moe](T)p.[moe](T)[sp].[moe](T)}$$$$ (last 3' nucleoside missing)", "3 h FOB score": 4}
{"substance": "RNA1{[moe](G)[sp].[moe]([m5C])p.[moe](G)p.[moe](G)p.[moe](T)p.d(G)[sp].d(A)[sp].d(A)[sp].d(T)[sp].d(T)[sp].d([m5C])[sp].d(T)[sp].d(G)[sp].d(T)[sp].d([m5C])[sp].[moe](T)p.[moe]([m5C])p.[moe]([m5C])[sp].[moe]([m5C])}$$$$ (last 3' nucleoside missing)", "3 h FOB score": 0}
{"substance": "RNA1{[moe](G)[sp].[moe]([m5C])p.[moe](T)p.[moe](A)p.[moe](A)[sp].d([m5C])[sp].d(T)[sp].d(G)[sp].d(G)[sp].d(T)[sp].d(T)[sp].d(T)[sp].d(G)[sp].[moe]([m5C])p.[moe]([m5C])p.[moe]([m5C])[sp].[moe](T)}$$$$ (last 3' nucleoside missing)", "3 h FOB score": 6.5}
{"substance": "RNA1{[moe](G)[sp].[moe]([m5C])p.[moe](T)p.[moe](A)p.[moe](A)p.d([m5C])[sp].d(T)[sp].d(G)[sp].d(G)[sp].d(T)[sp].d(T)[sp].d(T)[sp].d(G)[sp].d([m5C])[sp].d([m5C])[sp].[moe]([m5C])p.[moe](T)p.[moe](T)[sp].[moe](G)}$$$$ (last 3' nucleoside missing)", "3 h FOB score": 6.75}
{"substance": "RNA1{[moe](G)[sp].[moe]([m5C])p.[moe](T)p.[moe](G)p.[moe](A)p.d(T)[sp].d(G)[sp].d(T)[sp].d(G)[sp].d(T)[sp].d(T)[sp].d([m5C])[sp].d(A)[sp].d(T)[sp].d(G)[sp].[moe](A)p.[moe]([m5C])p.[moe](T)[sp].[moe](T)}$$$$ (last 3' nucleoside missing)", "3 h FOB score": 4.5}
{"substance": "RNA1{[moe](G)[sp].[moe]([m5C])p.[moe](T)p.[moe](G)p.[moe](G)p.d(T)[sp].d(T)[sp].d([m5C])[sp].d([m5C])[sp].d(T)[sp].d(T)[sp].d(A)[sp].d([m5C])[sp].d(A)[sp].d(A)[sp].[moe](T)p.[moe](T)p.[moe](A)[sp].[moe](T)}$$$$ (last 3' nucleoside missing)", "3 h FOB score": 0}
{"substance": "RNA1{[moe](G)[sp].[moe]([m5C])p.[moe](T)p.[moe](G)p.[moe](T)p.d(A)[sp].d(T)[sp].d(T)[sp].d(T)[sp].d(T)[sp].d(T)[sp].d(A)[sp].d([m5C])[sp].d(T)[sp].d([m5C])[sp].[moe](A)p.[moe]([m5C])p.[moe]([m5C])[sp].[moe](T)}$$$$ (last 3' nucleoside missing)", "3 h FOB score": 0}
{"substance": "RNA1{[moe](G)[sp].[moe]([m5C])p.[moe](T)p.[moe](G)p.[moe](T)p.d(G)[sp].d(A)[sp].d(G)[sp].d(T)[sp].d(T)[sp].d([m5C])[sp].d(A)[sp].d([m5C])[sp].d([m5C])[sp].d(T)[sp].[moe](G)p.[moe]([m5C])p.[moe](A)[sp].[moe](T)}$$$$ (last 3' nucleoside missing)", "3 h FOB score": 0}
{"substance": "RNA1{[moe](G)[sp].[moe]([m5C])p.[moe](T)p.[moe](G)p.[moe](T)p.d(G)[sp].d(T)[sp].d(A)[sp].d(T)[sp].d(T)[sp].d(T)[sp].d(T)[sp].d(T)[sp].d([m5C])[sp].d(T)[sp].[moe](T)p.[moe]([m5C])p.[moe]([m5C])[sp].[moe](T)}$$$$ (last 3' nucleoside missing)", "3 h FOB score": 0}
{"substance": "RNA1{[moe](G)[sp].[moe]([m5C])p.[moe](T)p.[moe](T)p.[moe](A)[sp].d(G)[sp].d(A)[sp].d(G)[sp].d(T)[sp].d(T)[sp].d(T)[sp].d(T)[sp].d(T)[sp].[moe](G)p.[moe]([m5C])p.[moe]([m5C])[sp].[moe](T)}$$$$ (last 3' nucleoside missing)", "3 h FOB score": 4}
